In patent US11293001B2, “Microfluidic cell culture systems” (9493662 Canada Inc., priority 2013, dated 2022):

Experiments:
[1] = tested on: DRG and hippocampal axons; assay: Immunocytochemistry: distribution of cytosolic components in axons with impaired transport; assay type: cell-based, rat
Experimental: (§1) To minimize remodeling and maintain the parallel organization of the axons in the cultures, DRG neurons were cultured at a density four-times lower than hippocampal neurons and were tested within 7-10 days in culture, whereas hippocampal axons were tested after 14-18 days in culture.
Immunocytochemistry was performed as described in Reference [8] with mouse anti-tubulin, rabbit anti neurofilament, rabbit polyclonal anti-Tom20 (mitochondrial preprotein translocases of the outer membrane FL-145); and Alexa Fluor™ 488 conjugated phalloidin. The secondary antibodies used were Rhodamine Red antimouse IgG and Alexa Fluor™ 647 anti-rabbit IgG. Samples were imaged using a laser scanning confocal microscope with a 60× PlanApo oilimmersion objective on an inverted microscope.
To investigate the reason for the higher resistance of DRG axons to compression and to vinblastine effects, the inventors investigated the composition and distribution of cytosolic components in axons with impaired transport. […] The inventors analyzed the distribution of mitochondria, actin, neurofilament, and tubulin after blockade of axonal transport.

[2] = tested on: hippocampal and DRG axons; assay: Axonal elastic modulus by AFM nano-indentation (modified Hertz model); assay type: cell-based, rat
Experimental: as §1
Simultaneous compression and live imaging of single axons were performed on a Bioscope AFM mounted on an inverted optical microscope using a 100× objective (1.45 NA) and 1K charge-coupled device camera. Two different compression experiments were performed. In the first, a 20-mm polystyrene bead was fixed, see Reference [8], to the tip of silicon nitride probes with a nominal spring constant of k=0.01 N/m and used to compress axons with controlled force ranging from 0.1 nN≤F≤4 nN for different time periods. In the second, tipless n-type silicon probes with nominal spring constant of k=0.03 N/m were used to apply constant force to axons. […]
Modeling the underlying glass plane as a sphere with an infinite radius, then the term accounting for the deformation induced by the plane is negligible. Using the method of Reference [13] the δBead-Cylinder can be calculated using Equation (2) where γ is the Poisson ratio of the axon or the bead, E is the Young's modulus of the material, F is the total force applied, e is the eccentricity of the ellipse of contact, and K and

[3] = 1 hour treatment, FIG. 4C insert
[4] = increasing vinblastine concentrations, 1 hour
[5] = vinblastine 5 nM or 500 nM for 1 hour, fixed, AFM
[6] = increasing vinblastine concentration

Substance: vinblastine sulfate salt
- vinblastine concentration at which the volume of the non-FAS segment decreased (DRG axons; [3]): 500 nM
- volume of single FAS (DRG axons; [4]): increased with increasing vinblastine concentrations
- number and size of FAS (focal axonal swelling) (DRG axons; [5]): increased with increasing vinblastine concentrations
- tubulin and neurofilament aggregation at FAS [1, 6]: proportional increase
- distribution of actin ([1]; vinblastine-treated axons): concentrated between FAS
- distribution of mitochondria ([1]; vinblastine-treated axons): changed from uniform to a discontinuous punctate pattern
- neurofilaments and microtubules ([1]; vinblastine-treated axons): collapsed and accumulated at FAS
- vinblastine concentration at which the volume of the non-FAS segment decreased (hippocampal axons; [3]): 5 nM
- volume of single FAS (hippocampal axons; [4]): did not significantly change
- number and size of FAS (focal axonal swelling) (hippocampal axons; [5]): increased with increasing vinblastine concentrations
- average elastic modulus at 30% of indentation (EM30%) ([2]; 5 nM vinblastine, p<0.001): significantly decreased
- slope of the elastic modulus curve as a function of percentage indentation [2, 6]: decreased proportionally with increasing vinblastine concentration
